Common to all, as to conditions: 37°C, HBS with 0.1% BSA
In test [1] the target is huPA-H99Y Q192A (Homo sapiens, UniProt P00749, H272Y/Q373A). The experiment in a line: KM for S-2444 hydrolysis by huPA-H99Y Q192A. The test is classed as biochemical. More on the design: hexa-His (C); made in house; host or cells: HEK293 6E suspension cells. The method, then: (§1) Determination of K M values
(§2) To determine the K M values for hydrolysis of S-2444 (pyro-Glu-Gly-Arg-p-nitroanilide) by the different uPA variants used in the present study, a 200 µL 2-fold dilution series of the substrate (4 - 0 mM for huPA variants, 24 – 0 mM for muPA variants) in a buffer of 10 mM HEPES, pH 7.4, 140 mM NaCl (HEPES-buffered saline, HBS), with 0.1% bovine serum albumin (BSA), was incubated 2 min at 37°C, prior to the addition of a fixed concentration of each protease (approximaterly 2 nM final concentration). The initial reaction velocities (V i), monitored as the changes in absorbance at 405 nm, were plotted against the initial substrate concentration ([S]) and non-linear regression analysis was used to determine the K M according to equation 1: […]
(§3) The K M values for hydrolysis of S-2444 by the uPA variants employed in the present study are listed in S2 Table.

The target in test [2] is T1, huPA wt (Homo sapiens, UniProt P00749).
T1 construct: To ensure that the uPAs purified from the conditioned media were completely in the two-chain form, they were treated with plasmin; hexa-His (C); made in house; host or cells: HEK293 6E suspension cells
Description: KM for S-2444 hydrolysis by huPA wt. The test is classed as biochemical. As to the method:
as §1, §2, §3

The target in test [3] is T2, huPA-H99Y K143A (Homo sapiens, UniProt P00749, H272Y/K320A).
T2 construct: To ensure that the uPAs purified from the conditioned media were completely in the two-chain form, they were treated with plasmin; hexa-His (C); made in house; host or cells: HEK293 6E suspension cells
Description: KM for S-2444 hydrolysis by huPA-H99Y K143A. The format is biochemical. The method, then: as §1, §2, §3

For test [4], the target named is T3, muPA K41A (Mus musculus, UniProt P06869, K210A).
T3 construct: To ensure that the uPAs purified from the conditioned media were completely in the two-chain form, they were treated with plasmin; hexa-His (C); made in house; host or cells: HEK293 6E suspension cells
Description: KM for S-2444 hydrolysis by muPA K41A. The test is classed as biochemical, murine. As to the method:
as §1, §2, §3

Test [5] concerns the target T4, huPA-H99Y V41A (Homo sapiens, UniProt P00749, H272Y/V208A).
T4 construct: To ensure that the uPAs purified from the conditioned media were completely in the two-chain form, they were treated with plasmin; hexa-His (C); made in house; host or cells: HEK293 6E suspension cells
Description: KM for S-2444 hydrolysis by huPA-H99Y V41A. The format is biochemical. The method, then: as §1, §2, §3

Test [6] has as its target T5, muPA K143A (Mus musculus, UniProt P06869, K322A).
T5 construct: To ensure that the uPAs purified from the conditioned media were completely in the two-chain form, they were treated with plasmin; hexa-His (C); made in house; host or cells: HEK293 6E suspension cells
Description: KM for S-2444 hydrolysis by muPA K143A. The test is classed as biochemical, murine. As to the method:
as §1, §2, §3

The target in test [7] is T6, huPA-H99Y R35A (Homo sapiens, UniProt P00749, H272Y/R198A).
T6 construct: To ensure that the uPAs purified from the conditioned media were completely in the two-chain form, they were treated with plasmin; hexa-His (C); made in house; host or cells: HEK293 6E suspension cells
The experiment in a line: KM for S-2444 hydrolysis by huPA-H99Y R35A. The format is biochemical. The method, then: as §1, §2, §3

The target of test [8] is T7, muPA wt (Mus musculus, UniProt P06869).
T7 construct: To ensure that the uPAs purified from the conditioned media were completely in the two-chain form, they were treated with plasmin; hexa-His (C); made in house; host or cells: HEK293 6E suspension cells
The experiment in a line: KM for S-2444 hydrolysis by muPA wt. The format is biochemical, murine. The method, then: as §1, §2, §3

The target of test [9] is T8, huPA-H99Y (Homo sapiens, UniProt P00749, H272Y).
T8 construct: To ensure that the uPAs purified from the conditioned media were completely in the two-chain form, they were treated with plasmin; hexa-His (C); made in house; host or cells: HEK293 6E suspension cells
The experiment in a line: KM for S-2444 hydrolysis by huPA-H99Y. The test is classed as biochemical. The method, then:
as §1, §2, §3

In test [10] the target is T9, muPA S190A (Mus musculus, UniProt P06869, S373A).
T9 construct: To ensure that the uPAs purified from the conditioned media were completely in the two-chain form, they were treated with plasmin; hexa-His (C); made in house; host or cells: HEK293 6E suspension cells
Description: KM for S-2444 hydrolysis by muPA S190A. The test is classed as biochemical, murine. The method, then:
as §1, §2, §3

The target in test [11] is T10, muPA V213T (Mus musculus, UniProt P06869, V396T).
T10 construct: To ensure that the uPAs purified from the conditioned media were completely in the two-chain form, they were treated with plasmin; hexa-His (C); made in house; host or cells: HEK293 6E suspension cells
Description: KM for S-2444 hydrolysis by muPA V213T. The format is biochemical, murine. As to the method:
as §1, §2, §3

The target of test [12] is T11, muPA Y99A (Mus musculus, UniProt P06869, Y274A).
T11 construct: To ensure that the uPAs purified from the conditioned media were completely in the two-chain form, they were treated with plasmin; hexa-His (C); made in house; host or cells: HEK293 6E suspension cells
Description: KM for S-2444 hydrolysis by muPA Y99A. The format is biochemical, murine. As to the method: as §1, §2, §3

Square brackets hold non-standard residues; d marks the D form. Peptide text beside a SMILES is read from it. * marks the point of attachment. pNA = O=[N+]([O-])c1ccc(N*)cc1; pGlu = O=C1CC[C@@H](C(=O)O)N1

T7 sequence (P06869 180-433 limits assumed): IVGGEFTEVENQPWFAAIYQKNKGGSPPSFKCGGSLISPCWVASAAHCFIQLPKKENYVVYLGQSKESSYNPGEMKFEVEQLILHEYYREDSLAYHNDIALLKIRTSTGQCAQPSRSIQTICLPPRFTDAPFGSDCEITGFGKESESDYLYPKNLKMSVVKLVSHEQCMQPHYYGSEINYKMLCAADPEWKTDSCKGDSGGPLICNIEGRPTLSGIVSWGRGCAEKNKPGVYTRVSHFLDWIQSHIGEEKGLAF
T7 sequence (P06869 21-178 partner limits assumed): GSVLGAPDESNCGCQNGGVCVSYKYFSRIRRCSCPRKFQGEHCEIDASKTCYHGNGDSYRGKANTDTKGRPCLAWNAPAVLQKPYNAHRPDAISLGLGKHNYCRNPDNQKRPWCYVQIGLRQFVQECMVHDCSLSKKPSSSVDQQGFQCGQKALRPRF
T10 sequence (P06869 180-433 V396T): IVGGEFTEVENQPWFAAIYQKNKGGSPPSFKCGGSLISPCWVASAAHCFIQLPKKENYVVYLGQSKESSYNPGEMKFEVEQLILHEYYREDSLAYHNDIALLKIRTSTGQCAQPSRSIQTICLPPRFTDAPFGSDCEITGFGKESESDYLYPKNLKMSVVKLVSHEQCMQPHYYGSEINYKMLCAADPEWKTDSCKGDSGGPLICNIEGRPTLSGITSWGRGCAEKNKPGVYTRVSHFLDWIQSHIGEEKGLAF
T10 sequence (P06869 21-178 partner limits assumed): as the sequence (P06869 21-178 partner limits assumed) above
T3 sequence (P06869 180-433 K210A): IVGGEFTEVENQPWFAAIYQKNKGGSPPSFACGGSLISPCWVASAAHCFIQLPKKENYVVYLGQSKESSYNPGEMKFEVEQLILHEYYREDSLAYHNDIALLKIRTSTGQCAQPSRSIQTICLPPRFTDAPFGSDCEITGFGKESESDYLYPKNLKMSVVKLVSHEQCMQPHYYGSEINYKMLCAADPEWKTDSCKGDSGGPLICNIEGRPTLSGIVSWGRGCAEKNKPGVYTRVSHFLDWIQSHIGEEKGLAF
T3 sequence (P06869 21-178 partner limits assumed): as the sequence (P06869 21-178 partner limits assumed) above
T11 sequence (P06869 180-433 Y274A): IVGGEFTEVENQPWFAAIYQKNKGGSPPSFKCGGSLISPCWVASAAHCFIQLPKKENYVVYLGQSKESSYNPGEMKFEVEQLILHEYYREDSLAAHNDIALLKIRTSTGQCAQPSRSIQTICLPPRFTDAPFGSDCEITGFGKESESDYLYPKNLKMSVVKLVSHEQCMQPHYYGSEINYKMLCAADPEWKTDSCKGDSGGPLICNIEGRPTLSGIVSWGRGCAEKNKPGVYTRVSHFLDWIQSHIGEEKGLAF
T11 sequence (P06869 21-178 partner limits assumed): as the sequence (P06869 21-178 partner limits assumed) above
T5 sequence (P06869 180-433 K322A): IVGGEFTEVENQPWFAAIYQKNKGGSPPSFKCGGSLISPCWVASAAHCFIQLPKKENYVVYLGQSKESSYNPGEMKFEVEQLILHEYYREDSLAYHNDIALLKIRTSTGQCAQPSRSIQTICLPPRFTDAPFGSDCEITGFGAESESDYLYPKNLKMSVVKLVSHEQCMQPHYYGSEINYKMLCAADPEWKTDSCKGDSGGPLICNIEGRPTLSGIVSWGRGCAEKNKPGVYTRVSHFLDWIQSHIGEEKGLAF
T5 sequence (P06869 21-178 partner limits assumed): as the sequence (P06869 21-178 partner limits assumed) above
T9 sequence (P06869 180-433 S373A): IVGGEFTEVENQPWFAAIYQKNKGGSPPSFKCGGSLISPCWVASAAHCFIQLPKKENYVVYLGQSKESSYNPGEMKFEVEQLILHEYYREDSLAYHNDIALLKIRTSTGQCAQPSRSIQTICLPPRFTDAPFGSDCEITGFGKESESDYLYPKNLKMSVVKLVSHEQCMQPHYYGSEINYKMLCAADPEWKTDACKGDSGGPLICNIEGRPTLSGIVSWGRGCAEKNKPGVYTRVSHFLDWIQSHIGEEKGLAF
T9 sequence (P06869 21-178 partner limits assumed): as the sequence (P06869 21-178 partner limits assumed) above

Take `NC(N)=NCCC[C@H](NC(=O)CNC(=O)[C@@H]1CCC(=O)N1)C(=O)Nc1ccc([N+](=O)[O-])cc1` [S-2444, pyro-Glu-Gly-Arg-p-nitroanilide] ([pGlu]-Gly-Arg-pNA): the Michaelis-Menten constant (Km) in test [1] was determined as 904 ± 178 µM; in test [2], 87 ± 0.3 µM; in [3], 500 ± 41 µM; in test [4] it was 2500 ± 200 µM; in test [5], 742 ± 73 µM; in [6] it was 1000 ± 400 µM. In addition, the Km was 517 ± 156 µM in test [7]; 2400 ± 200 µM in test [8]; 610 ± 110 µM in [9]; 10800 ± 1000 µM in test [10]; 868 ± 350 µM in test [11]; 3600 ± 300 µM in test [12].

The values are drawn from PMC4278837, “A Cyclic Peptidic Serine Protease Inhibitor: Increasing Affinity by Increasing Peptide Flexibility” (PLoS ONE, 2014).
